PubChem BioAssay (NCI)
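Assay format: 96-well plates, 48-hour exposure. Here, GI50 denotes the concentration required for 50% inhibition of growth. TGI marks complete inhibition of growth.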

Key:
Assay in all cases: NCI anticancer screen, dose series, 48 h
PC-3 prostate = test system: PC-3 prostate
UACC-62 melanoma = test system: UACC-62 melanoma
CCRF-CEM leukemia = test system: CCRF-CEM leukemia
SK-MEL-5 melanoma = test system: SK-MEL-5 melanoma
T-47D breast = test system: T-47D breast
OVCAR-4 ovarian = test system: OVCAR-4 ovarian
U251 CNS = test system: U251 CNS
HOP-62 NSCLC = test system: HOP-62 NSCLC
SN12C renal = test system: SN12C renal
NCI-H23 lung = test system: NCI-H23 lung
OVCAR-5 ovarian = test system: OVCAR-5 ovarian
M14 melanoma = test system: M14 melanoma
HCC-2998 colon = test system: HCC-2998 colon
786-0 renal = test system: 786-0 renal
SF-539 CNS = test system: SF-539 CNS
NCI-H460 lung = test system: NCI-H460 lung
DU-145 prostate = test system: DU-145 prostate
K-562 leukemia = test system: K-562 leukemia
LOX IMVI melanoma = test system: LOX IMVI melanoma
MDA-N = test system: MDA-N
UO-31 renal = test system: UO-31 renal
MDA-MB-435 = test system: MDA-MB-435
MDA-MB-231 breast = test system: MDA-MB-231 breast
IGROV1 ovarian = test system: IGROV1 ovarian
RXF 393 renal = test system: RXF 393 renal
COLO 205 colon = test system: COLO 205 colon
A498 renal = test system: A498 renal
SNB-19 CNS = test system: SNB-19 CNS
SW-620 colon = test system: SW-620 colon
HT29 colon = test system: HT29 colon
SF-295 CNS = test system: SF-295 CNS
HCT-15 colon = test system: HCT-15 colon
SK-OV-3 ovarian = test system: SK-OV-3 ovarian
A549 NSCLC = test system: A549 NSCLC
SK-MEL-2 melanoma = test system: SK-MEL-2 melanoma
KM12 colon = test system: KM12 colon
EKVX NSCLC = test system: EKVX NSCLC
UACC-257 melanoma = test system: UACC-257 melanoma
ACHN renal = test system: ACHN renal
HL-60(TB) leukemia = test system: HL-60(TB) leukemia
MALME-3M melanoma = test system: MALME-3M melanoma
NCI-H226 lung = test system: NCI-H226 lung
CAKI-1 renal = test system: CAKI-1 renal
NCI-H522 lung = test system: NCI-H522 lung
SR leukemia = test system: SR leukemia
MOLT-4 leukemia = test system: MOLT-4 leukemia
OVCAR-3 ovarian = test system: OVCAR-3 ovarian
SK-MEL-28 melanoma = test system: SK-MEL-28 melanoma
NCI/ADR-RES ovarian = test system: NCI/ADR-RES ovarian
SF-268 CNS = test system: SF-268 CNS
HOP-92 NSCLC = test system: HOP-92 NSCLC
HCT-116 colon = test system: HCT-116 colon
OVCAR-8 ovarian = test system: OVCAR-8 ovarian
HS 578T breast = test system: HS 578T breast
TK-10 renal = test system: TK-10 renal
BT-549 breast = test system: BT-549 breast
SNB-75 CNS = test system: SNB-75 CNS
MCF7 breast = test system: MCF7 breast
RPMI-8226 leukemia = test system: RPMI-8226 leukemia

For CC1=C(/C=C/C(C)=C/C=C/C(C)=C/CO)C(C)(C)CCC1, the TGI (PC-3 prostate) was greater than 100 µM, the TGI (UACC-62 melanoma) was 45.9 µM and the TGI (CCRF-CEM leukemia) was 46.4 µM. It also gave a TGI (SK-MEL-5 melanoma) of 32 µM, a TGI (T-47D breast) of 96.2 µM and a TGI (OVCAR-4 ovarian) greater than 100 µM. The TGI (U251 CNS) was 39 µM, the TGI (HOP-62 NSCLC) was 47.5 µM and the TGI (SN12C renal) was 60.8 µM. It also gave a TGI (NCI-H23 lung) of 54.8 µM, a TGI (OVCAR-5 ovarian) of 61.2 µM and a TGI (M14 melanoma) of 35.7 µM. It also gave a TGI (HCC-2998 colon) of 36.2 µM, a TGI (786-0 renal) of 34.2 µM and a TGI (SF-539 CNS) of 34.3 µM. For the same molecule, the TGI (NCI-H460 lung) was greater than 100 µM, the TGI (DU-145 prostate) was greater than 100 µM and the TGI (K-562 leukemia) was greater than 100 µM. For the same molecule, the TGI (LOX IMVI melanoma) was 43.5 µM, the TGI (MDA-N) was greater than 100 µM and the TGI (UO-31 renal) was 31.8 µM. For the same molecule, the TGI (MDA-MB-435) was 62.4 µM, the TGI (MDA-MB-231 breast) was 78.5 µM and the TGI (IGROV1 ovarian) was 57.7 µM. For the same molecule, the TGI (RXF 393 renal) was 28.3 µM, the TGI (COLO 205 colon) was 38.3 µM and the TGI (A498 renal) was 42.6 µM. It also gave a TGI (SNB-19 CNS) of 69.4 µM, a TGI (SW-620 colon) of 38.8 µM and a TGI (HT29 colon) greater than 100 µM. The TGI (SF-295 CNS) was 58.3 µM, the TGI (HCT-15 colon) was greater than 100 µM and the TGI (SK-OV-3 ovarian) was greater than 100 µM. For the same molecule, the TGI (A549 NSCLC) was 45.5 µM, the TGI (SK-MEL-2 melanoma) was 44 µM and the TGI (KM12 colon) was greater than 100 µM. It also gave a TGI (EKVX NSCLC) greater than 100 µM, a TGI (UACC-257 melanoma) of 84.4 µM and a TGI (ACHN renal) greater than 100 µM. It also gave a TGI (HL-60(TB) leukemia) of 45.3 µM, a TGI (MALME-3M melanoma) of 29.1 µM and a TGI (NCI-H226 lung) of 50.9 µM. For the same molecule, the TGI (CAKI-1 renal) was greater than 100 µM, the TGI (NCI-H522 lung) was 54.7 µM and the TGI (SR leukemia) was 38.3 µM. It also gave a TGI (MOLT-4 leukemia) of 44.4 µM, a TGI (OVCAR-3 ovarian) of 28.4 µM and a TGI (SK-MEL-28 melanoma) of 48.5 µM. The TGI (NCI/ADR-RES ovarian) was 43.1 µM and the TGI (SF-268 CNS) was 52 µM.

In the case of CN(C)CCN1C(=O)c2cccc3cccc(c23)C1=O, the GI50 (PC-3 prostate) is reported as 18.7 µM, the TGI (PC-3 prostate) is reported as greater than 25 µM and the GI50 (UACC-62 melanoma) is reported as 18.1 µM. It also gave a TGI (UACC-62 melanoma) greater than 25 µM, a GI50 (CCRF-CEM leukemia) of 14.5 µM and a TGI (CCRF-CEM leukemia) greater than 25 µM. The GI50 (HOP-92 NSCLC) was 14.8 µM, the TGI (HOP-92 NSCLC) was greater than 25 µM and the GI50 (SK-MEL-5 melanoma) was 18.4 µM. The TGI (SK-MEL-5 melanoma) was greater than 25 µM, the GI50 (T-47D breast) was greater than 25 µM and the TGI (T-47D breast) was greater than 25 µM. For the same molecule, the GI50 (OVCAR-4 ovarian) was greater than 25 µM, the TGI (OVCAR-4 ovarian) was greater than 25 µM and the GI50 (U251 CNS) was 19.8 µM. The TGI (U251 CNS) was greater than 25 µM, the GI50 (HOP-62 NSCLC) was greater than 25 µM and the TGI (HOP-62 NSCLC) was greater than 25 µM. The GI50 (SN12C renal) was 12.7 µM, the TGI (SN12C renal) was greater than 25 µM and the GI50 (NCI-H23 lung) was greater than 25 µM. It also gave a TGI (NCI-H23 lung) greater than 25 µM, a GI50 (OVCAR-5 ovarian) of 18.1 µM and a TGI (OVCAR-5 ovarian) greater than 25 µM. For the same molecule, the GI50 (M14 melanoma) was greater than 25 µM, the TGI (M14 melanoma) was greater than 25 µM and the GI50 (HCC-2998 colon) was greater than 25 µM. The TGI (HCC-2998 colon) was greater than 25 µM, the GI50 (786-0 renal) was 24 µM and the TGI (786-0 renal) was greater than 25 µM. The GI50 (SF-539 CNS) was 15.6 µM, the TGI (SF-539 CNS) was greater than 25 µM and the GI50 (NCI-H460 lung) was 8.26 µM. For the same molecule, the TGI (NCI-H460 lung) was greater than 25 µM, the GI50 (HCT-116 colon) was 9.57 µM and the TGI (HCT-116 colon) was greater than 25 µM. For the same molecule, the GI50 (DU-145 prostate) was 12.4 µM, the TGI (DU-145 prostate) was greater than 25 µM and the GI50 (OVCAR-8 ovarian) was 13.2 µM. The TGI (OVCAR-8 ovarian) was greater than 25 µM, the GI50 (K-562 leukemia) was 9.68 µM and the TGI (K-562 leukemia) was greater than 25 µM. For the same molecule, the GI50 (LOX IMVI melanoma) was 10.6 µM, the TGI (LOX IMVI melanoma) was greater than 25 µM and the GI50 (UO-31 renal) was 11 µM. For the same molecule, the TGI (UO-31 renal) was greater than 25 µM, the GI50 (MDA-MB-435) was greater than 25 µM and the TGI (MDA-MB-435) was greater than 25 µM. For the same molecule, the GI50 (MDA-MB-231 breast) was greater than 25 µM, the TGI (MDA-MB-231 breast) was greater than 25 µM and the GI50 (RXF 393 renal) was 13.4 µM. The TGI (RXF 393 renal) was greater than 25 µM, the GI50 (COLO 205 colon) was 7.04 µM and the TGI (COLO 205 colon) was greater than 25 µM. For the same molecule, the GI50 (A498 renal) was 13.4 µM, the TGI (A498 renal) was greater than 25 µM and the GI50 (SNB-19 CNS) was 22.3 µM. For the same molecule, the TGI (SNB-19 CNS) was greater than 25 µM, the GI50 (HS 578T breast) was greater than 25 µM and the TGI (HS 578T breast) was greater than 25 µM. It also gave a GI50 (SW-620 colon) of 11.7 µM, a TGI (SW-620 colon) greater than 25 µM and a GI50 (HT29 colon) of 11.7 µM. It also gave a TGI (HT29 colon) greater than 25 µM, a GI50 (SF-295 CNS) of 11.1 µM and a TGI (SF-295 CNS) greater than 25 µM. It also gave a GI50 (TK-10 renal) of 12.3 µM, a TGI (TK-10 renal) greater than 25 µM and a GI50 (BT-549 breast) greater than 25 µM. For the same molecule, the TGI (BT-549 breast) was greater than 25 µM, the GI50 (HCT-15 colon) was 11.4 µM and the TGI (HCT-15 colon) was greater than 25 µM. It also gave a GI50 (SK-OV-3 ovarian) of 24.5 µM, a TGI (SK-OV-3 ovarian) greater than 25 µM and a GI50 (A549 NSCLC) of 12.9 µM. It also gave a TGI (A549 NSCLC) greater than 25 µM, a GI50 (SK-MEL-2 melanoma) greater than 25 µM and a TGI (SK-MEL-2 melanoma) greater than 25 µM. It also gave a GI50 (KM12 colon) of 12.9 µM, a TGI (KM12 colon) greater than 25 µM and a GI50 (EKVX NSCLC) greater than 25 µM. The TGI (EKVX NSCLC) was greater than 25 µM, the GI50 (UACC-257 melanoma) was greater than 25 µM and the TGI (UACC-257 melanoma) was greater than 25 µM. The GI50 (SNB-75 CNS) was greater than 25 µM, the TGI (SNB-75 CNS) was greater than 25 µM and the GI50 (ACHN renal) was 8.29 µM. For the same molecule, the TGI (ACHN renal) was greater than 25 µM, the GI50 (HL-60(TB) leukemia) was 6.82 µM and the TGI (HL-60(TB) leukemia) was greater than 25 µM. It also gave a GI50 (MALME-3M melanoma) of 17.6 µM, a TGI (MALME-3M melanoma) greater than 25 µM and a GI50 (NCI-H226 lung) of 12.2 µM. It also gave a TGI (NCI-H226 lung) greater than 25 µM, a GI50 (MCF7 breast) of 9.31 µM and a TGI (MCF7 breast) greater than 25 µM. The GI50 (CAKI-1 renal) was 5.13 µM, the TGI (CAKI-1 renal) was 17.5 µM and the GI50 (NCI-H522 lung) was 15.1 µM. It also gave a TGI (NCI-H522 lung) greater than 25 µM, a GI50 (RPMI-8226 leukemia) of 16.6 µM and a TGI (RPMI-8226 leukemia) greater than 25 µM. For the same molecule, the GI50 (SR leukemia) was 5.18 µM, the TGI (SR leukemia) was 18.3 µM and the GI50 (MOLT-4 leukemia) was 6.3 µM. The TGI (MOLT-4 leukemia) was 16.3 µM, the GI50 (OVCAR-3 ovarian) was 21.5 µM and the TGI (OVCAR-3 ovarian) was greater than 25 µM. It also gave a GI50 (SK-MEL-28 melanoma) greater than 25 µM, a TGI (SK-MEL-28 melanoma) greater than 25 µM and a GI50 (NCI/ADR-RES ovarian) of 19.6 µM. It also gave a TGI (NCI/ADR-RES ovarian) greater than 25 µM, a GI50 (SF-268 CNS) of 18.9 µM and a TGI (SF-268 CNS) greater than 25 µM.
